Here are results for 28 molecules from US20090018134A1, “Compounds - 945” (AstraZeneca AB, priority 2007, published 2009).

For orientation: IC50 means the concentration needed to halve the response being measured.

For the test, the target named is T1, mTOR (Homo sapiens, UniProt P42345).
T1 construct: FLAG; made in house
T1 sequence (P42345 1362-2549): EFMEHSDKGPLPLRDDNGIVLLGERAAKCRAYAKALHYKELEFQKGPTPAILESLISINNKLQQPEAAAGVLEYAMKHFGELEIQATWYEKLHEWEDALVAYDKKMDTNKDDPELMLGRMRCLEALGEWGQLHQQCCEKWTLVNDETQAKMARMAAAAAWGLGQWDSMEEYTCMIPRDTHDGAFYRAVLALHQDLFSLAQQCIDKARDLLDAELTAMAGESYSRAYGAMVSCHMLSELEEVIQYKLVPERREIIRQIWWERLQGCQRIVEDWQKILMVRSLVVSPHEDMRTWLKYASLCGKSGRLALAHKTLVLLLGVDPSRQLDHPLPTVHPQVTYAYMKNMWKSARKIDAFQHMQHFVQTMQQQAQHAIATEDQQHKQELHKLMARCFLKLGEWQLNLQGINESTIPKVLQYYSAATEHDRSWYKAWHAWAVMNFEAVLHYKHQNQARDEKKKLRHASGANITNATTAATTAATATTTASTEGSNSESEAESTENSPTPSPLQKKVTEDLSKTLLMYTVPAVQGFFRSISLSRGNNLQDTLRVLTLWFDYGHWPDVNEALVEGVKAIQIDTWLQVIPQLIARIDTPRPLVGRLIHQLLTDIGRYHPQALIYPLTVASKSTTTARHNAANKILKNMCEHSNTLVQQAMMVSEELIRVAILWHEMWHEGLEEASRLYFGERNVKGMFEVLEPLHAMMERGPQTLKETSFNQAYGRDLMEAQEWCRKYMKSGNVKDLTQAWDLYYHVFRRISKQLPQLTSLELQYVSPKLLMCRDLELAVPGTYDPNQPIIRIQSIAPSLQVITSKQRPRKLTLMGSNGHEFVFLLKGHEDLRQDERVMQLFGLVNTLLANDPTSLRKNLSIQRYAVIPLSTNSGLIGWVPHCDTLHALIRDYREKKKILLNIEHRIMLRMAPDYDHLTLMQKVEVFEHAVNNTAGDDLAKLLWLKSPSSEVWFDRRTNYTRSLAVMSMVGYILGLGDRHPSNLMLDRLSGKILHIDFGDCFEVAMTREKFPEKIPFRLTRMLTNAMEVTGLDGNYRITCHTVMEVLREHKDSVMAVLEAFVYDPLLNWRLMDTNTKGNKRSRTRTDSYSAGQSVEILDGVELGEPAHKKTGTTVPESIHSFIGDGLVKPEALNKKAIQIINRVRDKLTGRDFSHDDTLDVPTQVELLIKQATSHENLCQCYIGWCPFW
Nature of the test: In Vitro mTOR Kinase Assay (Echo), Test (a)(ii). It is filed as biochemical. The following applies: table of enzyme assay Test (a)(ii); read-out: Test (a)(ii) IC50. An outline of the steps: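 Compounds were acoustically dispensed, then incubated with FLAG-tagged mTOR (1362-2549) for 2 hours at room temperature. Reactions were quenched with EDTA plus detection antibody and AlphaScreen beads and left overnight in the dark before reading. Loss of phospho-T389 signal gave IC50 values.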
As to `C[C@H]1COCCN1c1cc(C2(S(=O)(=O)CCCO)CC2)nc(-c2ccc(NC(=O)NC3CCS(=O)(=O)C3)cc2)n1` (stereo partly drawn) [Example 36cr, 3-(1,1-dioxothiolan-3-yl)-1-[4-[4-[1-(3-hydroxypropylsulfonyl)cyclopropyl]-6-[(3S)-3-methylmorpholin-4-yl]pyrimidin-2-yl]phenyl]urea], the 50% inhibitory concentration (IC50) came out at 43.5 nM.

Take `C[C@H]1COCCN1c1cc(C2(S(=O)(=O)CCCO)CC2)nc(-c2ccc(NC(=O)NCC(=O)N(C)C)cc2)n1` [Example 36cs, 2-[[4-[4-[1-(3-hydroxypropylsulfonyl)cyclopropyl]-6-[(3S)-3-methylmorpholin-4-yl]pyrimidin-2-yl]phenyl]carbamoylamino]-N,N-dimethylactamide]: the IC50 was found to be 1170 nM. With `C[C@H]1COCCN1c1cc(C2(S(=O)(=O)c3ccccn3)CC2)nc(-c2ccc(NC(=O)Nc3ncns3)cc2)n1` [Example 36ct, 1-[4-[4-[(3S)-3-methylmorpholin-4-yl]-6-(1-pyridin-2-ylsulfonylcyclopropyl)pyrimidin-2-yl]phenyl]-3-(1,2,4-thiadiazol-5-yl)urea], the IC50 was determined as 1.57 nM. With `C[C@H]1COCCN1c1cc(C2(S(=O)(=O)c3ccccn3)CC2)nc(-c2ccc(NC(=O)NCc3ncc[nH]3)cc2)n1` [Example 36cu, 3-(1H-imidazol-2-ylmethyl)-1-[4-[4-[(3S)-3-methymorpholin-4-yl]-6-(1-pyridin-2-ylsulfonylcyclopropyl)pyrimidin-2-yl]phenyl]urea] the figure was 68.6 nM; with `C[C@H]1COCCN1c1cc(C2(S(=O)(=O)c3ccncc3)CC2)nc(-c2ccc(NC(=O)NCc3ncc[nH]3)cc2)n1` [Example 36cw, 3-(1H-imidazol-2-ylmethyl)-1-[4-[4-[(3S)-3-methylmorpholin-4-yl]-6-(1-pyridin-4-ylsulfonylcyclopropyl)pyrimidin-2-yl]phenyl]urea], 49.3 nM; with `C[C@H]1COCCN1c1cc(C2(S(=O)(=O)c3ccncc3)CC2)nc(-c2ccc(NC(=O)NC3(CO)CC3)cc2)n1` [Example 36cx, 3-[1-(hydroxymethyl)cyclopropyl]-1-[4-[4-[(3S)-3-methylmorpholin-4-yl]-6-(1-pyridin-4-ylsulfonylcyclopropyl)pyrimidin-2-yl]phenyl]urea], 284 nM. Consider `CNC(=O)Nc1ccc(-c2nc(N3CCOC[C@@H]3C)cc(C3(S(=O)(=O)c4ccccc4)CCOCC3)n2)cc1` [Example 36cy, 1-[4-[4-[4-(benzenesulfonyl)oxan-4-yl]-6-[(3S)-3-methylmorpholin-4-yl]pyrimidin-2-yl]phenyl]-3-methylurea], for which the IC50 amounted to 47.8 nM. With `CCNC(=O)Nc1ccc(-c2nc(N3CCOC[C@@H]3C)cc(C3(S(=O)(=O)c4ccccc4)CCOCC3)n2)cc1` [Example 36cz, 3-[4-[4-[4-(benzenesulfonyl)oxan-4-yl]-6-[(3S)-3-methylmorpholin-4-yl]pyrimidin-2-yl]phenyl]-1-ethylurea] the figure was 38.4 nM; with `CNC(=O)Nc1ccc(-c2nc(N3CCOC[C@@H]3C)cc(C3(S(=O)(=O)C4CC4)CCC3)n2)cc1` [Example 36d, 1-[4-[4-(1-cyclopropylsulfonylcyclobutyl)-6-[(3S)-3-methylmorpholin-4-yl]pyrimidin-2-yl]phenyl]-3-methylurea], 3.17 nM. For the molecule `C[C@H]1COCCN1c1cc(C2(S(=O)(=O)c3ccccc3)CCOCC2)nc(-c2ccc(NC(=O)NC3CC3)cc2)n1` [Example 36da, 1-[4-[4-[4-(benzenesulfonyl)oxan-4-yl]-6-[(3S)-3-methylmorpholin-4-yl]pyrimidin-2-yl]phenyl]-3-cyclopropylurea], the IC50 was determined as 33.1 nM. Take `C[C@H]1COCCN1c1cc(C2(S(=O)(=O)c3ccccc3)CCOCC2)nc(-c2ccc(NC(=O)NCCO)cc2)n1` [Example 36db, 1-[4-[4-[4-(benzenesulfonyl)oxan-4-yl]-6-[(3S)-3-methylmorpholin-4-yl]pyrimidin-2-yl]phenyl]-3-(2-hydroxyethyl)urea]: the IC50 worked out at 20.9 nM. As to `O=C(Nc1ccc(-c2nc(N3CCOCC3)cc(C3(S(=O)(=O)c4ccccc4)CC3)n2)cc1)NC1CC1` [Example 36dc, 1-[4-[4-[1-(benzenesulfonyl)cyclopropyl]-6-morpholin-4-ylpyrimidin-2-yl]phenyl]-3-cyclopropylurea], the 50% inhibitory concentration (IC50) turned out to be 9.89 nM. With `CCNC(=O)Nc1ccc(-c2nc(N3CCOCC3)cc(C3(S(=O)(=O)c4ccccc4)CC3)n2)cc1` [Example 36dd, 3-[4-[4-[1-(benzenesulfonyl)cyclopropyl]-6-morpholin-4-ylpyrimidin-2-yl]phenyl]-1-ethylurea] the figure was 2.91 nM. As for `O=C(NCCO)Nc1ccc(-c2nc(N3CCOCC3)cc(C3(S(=O)(=O)c4ccccc4)CC3)n2)cc1` [Example 36de, 1-[4-[4-[1-(benzenesulfonyl)cyclopropyl]-6-morpholin-4-ylpyrimidin-2-yl]phenyl]-3-(2-hydroxyethyl)urea], the figure is 3.89 nM; as for `CNC(=O)Nc1ccc(-c2nc(N3CCOCC3)cc(C3(S(=O)(=O)c4ccccc4)CC3)n2)cc1` [Example 36df, 3-[4-[4-[1-(benzenesulfonyl)cyclopropyl]-6-morpholin-4-ylpyrimidin-2-yl]phenyl]-1-methylurea], 7.12 nM.

As to `O=C(NCCCO)Nc1ccc(-c2nc(N3CCOCC3)cc(C3(S(=O)(=O)c4ccccc4)CC3)n2)cc1` [Example 36dg, 1-[4-[4-[1-(benzenesulfonyl)cyclopropyl]-6-morpholin-4-ylpyrimidin-2-yl]phenyl]-3-(3-hydroxypropyl)urea], the IC50 came to 16.4 nM.

For the molecule `N#CCCNC(=O)Nc1ccc(-c2nc(N3CCOCC3)cc(C3(S(=O)(=O)c4ccccc4)CC3)n2)cc1` [Example 36dh, 1-[4-[4-[1-(benzenesulfonyl)cyclopropyl]-6-morpholin-4-ylpyrimidin-2-yl]phenyl]-3-(2-cyanoethyl)urea], the IC50 was determined as 3.4 nM. As for `O=C(Nc1ccc(-c2nc(N3CCOCC3)cc(C3(S(=O)(=O)c4ccccc4)CC3)n2)cc1)Nc1ncns1` [Example 36di, 1-[4-[4-[1-(benzenesulfonyl)cyclopropyl]-6-morpholin-4-ylpyrimidin-2-yl]phenyl]-3-(1,2,4-thiadiazol-5-yl)urea], the figure is 9.23 nM.

For `Cn1cc(NC(=O)Nc2ccc(-c3nc(N4CCOCC4)cc(C4(S(=O)(=O)c5ccccc5)CC4)n3)cc2)cn1` [Example 36dj, 3-[4-[4-[1-(benzenesulfonyl)cyclopropyl]-6-morpholin-4-ylpyrimidin-2-yl]phenyl]-1-(1-methylpyrazol-4-yl)urea], the IC50 came out at 8.91 nM. With `Cc1csc(S(=O)(=O)C2(c3cc(N4CCOC[C@@H]4C)nc(-c4ccc(NC(=O)NC5CC5)cc4)n3)CCCC2)n1` [Example 36dk, 3-cyclopropyl-1-[4-[4-[(3S)-3-methylmorpholin-4-yl]-6-[1-[(4-methyl-1,3-thiazol-2-yl)sulfonyl)cyclopentyl]pyrimidin-2-yl]phenyl]urea] the figure was 9.05 nM; with `Cc1csc(S(=O)(=O)C2(c3cc(N4CCOC[C@@H]4C)nc(-c4ccc(NC(=O)NCCO)cc4)n3)CCCC2)n1` [Example 36dl, 3-(2-hydroxyethyl)-1-[4-[4-[(3S)-3-methylmorpholin-4-yl]-6-[1-[(4-methyl-1,3-thiazol-2-yl)sulfonyl]cyclopentyl]pyrimidin-2-yl]phenyl]urea], 3.99 nM. With `Cc1csc(S(=O)(=O)C2(c3cc(N4CCOC[C@@H]4C)nc(-c4ccc(NC(=O)NCCC#N)cc4)n3)CCCC2)n1` [Example 36dm, 3-(2-cyanoethyl)-1-[4-[4-[(3S)-3-methylmorpholin-4-yl]-6-[1-[(4-methyl-1,3-thiazol-2-yl)sulfonyl]cyclopentyl]pyrimidin-2-yl]phenyl]urea] the figure was 29.8 nM; with `Cc1csc(S(=O)(=O)C2(c3cc(N4CCOC[C@@H]4C)nc(-c4ccc(NC(=O)NCCCO)cc4)n3)CCCC2)n1` [Example 36dn, 3-(3-hydroxypropyl)-1-[4-[4-[(3S)-3-methylmorpholin-4-yl]-6-[1-[(4-methyl-1,3-thiazol-2-yl)sulfonyl]cyclopentyl]pyrimidin-2-yl]phenyl]urea], 13.8 nM; with `C[C@H]1COCCN1c1cc(C2(S(=O)(=O)c3ccccc3)CC2)nc(-c2ccc(NC(=O)N3CCC(O)C3)cc2)n1` (stereo partly drawn) [Example 36do, N-[4-[4-[1-(benzenesulfonyl)cyclopropyl]-6-[(3S)-3-methylmorpholin-4-yl]pyrimidin-2-yl]phenyl]-3-hydroxypyrrolidine-1-carboxamide], 27.7 nM. As for `C[C@H]1COCCN1c1cc(C2(S(=O)(=O)c3ccccc3)CC2)nc(-c2ccc(NC(=O)NCC(=O)O)cc2)n1` [Example 36dp, 2-[[4-[4-[1-(benzenesulfonyl)cyclopropyl]-6-[(3S)-3-methylmorpholin-4-yl]pyrimidin-2-yl]phenyl]carbamoylamino]aceticacid], the figure is 10.6 nM; as for `C[C@H]1COCCN1c1cc(C2(S(=O)(=O)c3ccccc3)CC2)nc(-c2ccc(NC(=O)NCC(=O)N(C)C)cc2)n1` [Example 36dq, 2-[[4-[4-[1-(benzenesulfonyl)cyclopropyl]-6-[(3S)-3-methylmorpholin-4-yl]pyrimidin-2-yl]phenyl]carbamoylamino]-N,N-dimethylacetamide], 24.5 nM. Turning to `C[C@H]1COCCN1c1cc(C2(S(=O)(=O)c3ccccc3)CC2)nc(-c2ccc(NC(=O)N(C)C3CC3)cc2)n1` [Example 36dr, 3-[4-[4-[1-(benzenesulfonyl)cyclopropyl]-6-[(3S)-3-methylmorpholin-4-yl]pyrimidin-2-yl]phenyl]-1-cyclopropyl-1-methylurea], the IC50 was determined as 294 nM. Regarding `C[C@H]1COCCN1c1cc(C2(S(=O)(=O)c3ccccc3)CC2)nc(-c2ccc(NC(=O)NCCF)cc2)n1` [Example 36ds, 1-[4-[4-[1-(benzenesulfonyl)cyclopropyl]-6-[(3S)-3-methylmorpholin-4-yl]pyrimidin-2-yl]phenyl]-3-(2-fluoroethyl)urea], the IC50 came out at 0.973 nM.
